Some test systems named below: UO-31 renal; UACC-62 melanoma; NCI-H460 lung; HT29 colon; NCI/ADR-RES ovarian; A498 renal; LOX IMVI melanoma; RXF 393 renal.
Holding throughout (assay): NCI tumour cell line growth inhibition, 48 h

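A five-concentration, 48-hour dose response in 96-well plates underlies each endpoint, interpolated linearly between surrounding concentrations. Here, GI50 denotes the concentration required for 50% inhibition of growth. Definition used: TGI = concentration required for complete inhibition of growth.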

On to `Cc1cn([C@H]2C[C@H](O)[C@@H](CO)O2)c(=O)nc1N`, for which the TGI in the test on UO-31 renal, in the test with UACC-62 melanoma, with NCI-H460 lung, in the test on HT29 colon, with NCI/ADR-RES ovarian and in the test with A498 renal was more than 100 µM in each case. In the test with LOX IMVI melanoma, this molecule returned a TGI of more than 100 µM.

Consider `O=C(O)c1cn(C2CC2)c2cc(N3CCNCC3)c(F)cc2c1=O`, for which the GI50 in the test with UO-31 renal, with UACC-62 melanoma, in the test on RXF 393 renal, in the test with NCI-H460 lung, in the test with HT29 colon and in the test on NCI/ADR-RES ovarian was more than 100 µM in each case. Besides, the TGI in the test with UO-31 renal, in the test with UACC-62 melanoma, in the test on RXF 393 renal, in the test with NCI-H460 lung, in the test with HT29 colon and in the test with NCI/ADR-RES ovarian was more than 100 µM in each case.

As to `COc1ccc(-n2cc(-c3cc(OC)c(OC)c(OC)c3)[nH]c2=S)cc1Cl`, the GI50 is 38.6 µM in the test on UO-31 renal; more than 100 µM with UACC-62 melanoma; 17.6 µM with RXF 393 renal; 18.9 µM in the test on NCI-H460 lung; more than 100 µM in the test on HT29 colon; 27.5 µM with NCI/ADR-RES ovarian. For the same molecule, in the test with LOX IMVI melanoma, the GI50 is 6.12 µM. Also, the TGI in the test with UO-31 renal, in the test with UACC-62 melanoma, with RXF 393 renal, in the test with NCI-H460 lung, with HT29 colon and with NCI/ADR-RES ovarian was more than 100 µM each time. Also, the TGI in the test on LOX IMVI melanoma was more than 100 µM.

Turning to `CCCC(C)c1c(Cl)nc(Cl)nc1Cl` (centres undefined), the TGI with UO-31 renal was 34.7 µM; in the test on RXF 393 renal, 22.4 µM; in the test on NCI-H460 lung it was 45.6 µM; in the test on HT29 colon it was 26.5 µM; in the test with NCI/ADR-RES ovarian, more than 100 µM; in the test with LOX IMVI melanoma, more than 100 µM.

For the molecule `COc1ccc(/C=C\c2cc(OC)c(OC)c(OC)c2)cc1OCC(=O)Nc1nc2ccccc2s1`, the GI50 with UO-31 renal was 0.381 µM; in the test on UACC-62 melanoma, 0.0587 µM; in the test on RXF 393 renal, 0.0503 µM; in the test with NCI-H460 lung, 0.0476 µM; in the test with HT29 colon it was 2.72 µM; in the test on A498 renal, 0.346 µM. The GI50 with LOX IMVI melanoma was 0.0808 µM. Further, the TGI was more than 100 µM in the test on UO-31 renal; more than 100 µM with UACC-62 melanoma; 79.9 µM with RXF 393 renal; more than 100 µM in the test on NCI-H460 lung; more than 48.9 µM in the test on HT29 colon; more than 83.4 µM in the test with A498 renal. In the test on LOX IMVI melanoma, this molecule gave a TGI of more than 100 µM.

Turning to `COc1ccc(C(=O)/C=C/c2cc(-c3ccc4c(c3)OCO4)n[nH]2)cc1OC`, the GI50 was 2.32 µM in the test on UO-31 renal; 4.1 µM in the test on UACC-62 melanoma; 2.42 µM with RXF 393 renal; 1.81 µM in the test on NCI-H460 lung; 2.98 µM in the test on HT29 colon; 1.55 µM in the test with A498 renal. For the same molecule, the GI50 in the test with LOX IMVI melanoma was 1.97 µM. In addition, the TGI turned out to be 10.1 µM in the test on UO-31 renal; 14.8 µM in the test on UACC-62 melanoma; 5.39 µM with RXF 393 renal; 4.05 µM in the test on NCI-H460 lung; 11.3 µM with HT29 colon; 4.23 µM with A498 renal. Also, in the test on LOX IMVI melanoma, the TGI worked out at 4.08 µM.

As for `Oc1ccc2ccccc2c1N=Nc1ccc(Cl)cc1`, the TGI in the test with UO-31 renal is more than 100 µM; with UACC-62 melanoma, more than 100 µM; with RXF 393 renal it was more than 100 µM; in the test with HT29 colon, more than 100 µM; with NCI/ADR-RES ovarian, more than 100 µM; in the test with LOX IMVI melanoma it was 78.7 µM.

In the case of `CC(C)C[CH2][Ge]([CH2]CC(C)C)([CH2]CC(C)C)[CH2]CC(C)C`, the GI50 with UO-31 renal, in the test with UACC-62 melanoma, in the test with NCI-H460 lung, in the test on HT29 colon, with NCI/ADR-RES ovarian and in the test on A498 renal was more than 100 µM each time. Further, the GI50 in the test on LOX IMVI melanoma was more than 100 µM. The TGI in the test with UO-31 renal, in the test with UACC-62 melanoma, with NCI-H460 lung, in the test with HT29 colon, in the test with NCI/ADR-RES ovarian and with A498 renal was more than 100 µM in each case. In the test on LOX IMVI melanoma, this molecule registered a TGI of more than 100 µM.

For the molecule `COc1ccc2c(c1)C(=O)c1c-2c(N2CCN(C(=O)CNCCN(C)C)CC2)nc2ccccc12`, the GI50 is 1.38 µM in the test with UO-31 renal; 2.16 µM in the test with UACC-62 melanoma; 1.17 µM in the test with NCI-H460 lung; 0.362 µM in the test on HT29 colon; 4.28 µM in the test with NCI/ADR-RES ovarian; 2.14 µM in the test with A498 renal. In addition, the GI50 with LOX IMVI melanoma is 1.71 µM. Further, the TGI in the test on UO-31 renal came to 2.78 µM; in the test with UACC-62 melanoma, 3.69 µM; in the test on NCI-H460 lung, 2.55 µM; with HT29 colon, 1.25 µM; in the test on NCI/ADR-RES ovarian, 19.9 µM; in the test with A498 renal it was 5 µM. Further, the TGI in the test with LOX IMVI melanoma was determined as 3.33 µM.

Consider `COc1cnc2c(c1)C(=O)c1c-2n(CCCNCCN2CCOCC2)c(=O)c2cc([N+](=O)[O-])ccc12`, for which the GI50 in the test with UO-31 renal is 0.0523 µM; in the test with UACC-62 melanoma, 0.0438 µM; in the test on RXF 393 renal it was 0.387 µM; in the test on NCI-H460 lung, 0.0411 µM; in the test with HT29 colon, 0.154 µM; in the test with NCI/ADR-RES ovarian, 0.125 µM. The GI50 in the test on LOX IMVI melanoma is 0.0413 µM. In addition, the TGI was determined as 0.434 µM in the test with UACC-62 melanoma; 1.93 µM with RXF 393 renal; 1.03 µM with NCI-H460 lung; 1.31 µM in the test on HT29 colon; 1.45 µM in the test with NCI/ADR-RES ovarian; 0.216 µM in the test on LOX IMVI melanoma.

(Values after PubChem BioAssay (NCI).)
